Measurements: patent publication US20140038920A1, “TFEB PHOSPHORYLATION INHIBITORS AND USES THEREOF” (FONDAZIONE TELETHON, priority 2011, published 2014)
Like-named read-outs stand apart in the source and are kept apart here.

Experiments:
[1] = type: in vivo; conditions: MSD mice, oral gavage 0.3 mg/day/mouse, 10 days
Experimental: (§1) Multiple Sulfatase Deficiency (MSD) mice were treated with placebo (n=3) or torin 2 (n=3) during 10 days (gavage-oral administration; 0.3 mg torin 2/day/mouse in 50% PEG400). […] After the treatment liver tissues were collected and GAG accumulation was determined by alcian blue staining.

[2] = system: Multiple Sulfatase Deficiency (MSD) mice; test: Liver GAG accumulation by alcian blue staining in treated MSD mice (FIG. 24); type: in vivo; conditions: oral gavage 0.3 mg/day/mouse in 50% PEG400, 10 days, n=3
Experimental: FIG. 24 Torin 2 reduces GAG accumulation in the liver of MSD mice. MSD mice were treated with placebo (MSD—750) or torin2 (MSD—727) during 10 days (oral administration; 0.3 mg torin 2/day/mouse in 50% PEG400). After the treatment liver tissues were collected and GAG accumulation was determined by alcian blue staining (black spots).
as §1
Sections of paraffin-embedded liver tissue were stained with 1% Alcian blue (Sigma-Aldrich) and counterstained with Nuclear-Fast red (Sigma-Aldrich).

[3] = system: glycosaminoglycan (GAG) accumulation in MSD NSCs; test: Alcian blue staining of GAGs in differentiated NSCs from MSD mice (FIG. 22); type: cell-based, mouse; conditions: glia-differentiated MSD NSCs, 10 nM, 24 hours, versus DMSO
Experimental: After 24 hours, the GAG content was determined by alcian blue (AB) staining. Both torins were able to reduce GAG staining in MSD treated cells as compared to DMSO treated cells.
Neuronal progenitor cells were isolated from cortices of WT and MSD pups (P0) by tissue homogenization using the neural tissue dissociation kit and separation using magnetic sorting of cells expressing the stem cell marker prominin-1 (Miltenyi Biotec Srl). Neuronal progenitor cells were maintained in ESGRO complete medium (Hyclone) in the presence of EGF and FGF2 growth factors (Prepotech). Where indicated, neural stem cells (NSCs) were differentiated by removing growth factors and incubate in ESGRO medium containing 2% of serum for at least 48 h.
Neuronal progenitor cells were isolated from cortices of WT and MSD pups (P0) by using standard protocols. Neuronal stem cells (NSCs) were fixed in Methacarn (60% Methanol; 10% Acetic Acid; 30% Chloroform) for 15 min at RT. After washing the cells were stained for 3 hours in 1% alcian blue pH 2.5, rinsed in 0.3% acetic acid and water and mounted in 100% for visualization.

[4] = system: vacuolization in MSD cells; test: Electron microscopy of vacuolization in differentiated MSD NSCs (FIG. 23); type: cell-based, mouse
Experimental: Differentiated NSC were fixed on glutaraldehyde and processed for standard electron microscopy.
Cells were washed with PBS, fixed in 0.05% glutaraldehyde, and dissolved in 0.2 M Hepes buffer (pH 7.4) for 30 min at room temperature. The cells were then post-fixed for 2 h in OsO4. After dehydration in graded series of ethanol, the cells were embedded in Epon 812 (Fluka) and polymerized at 60° C. for 72 h. Thin sections were cut at the Leica EM UC6, counterstained with uranyl acetate and lead citrate.

TFEB = test: High content TFEB-GFP nuclear translocation assay; type: cell-based; conditions: Homo sapiens, TFEB-GFP HeLa cells
Experimental: Immunoblotting of protein extracts isolated from HeLa cells treated overnight, as indicated. Membranes were probed with antibodies for p-T202/Y204-ERK1/2, ERK1/2, p-T389-S6K, and S6K to measure ERK and mTORC1 activities. […] FLAG immunoblotting of cytosolic and nuclear fractions isolated from TFEB-3×FLAG HeLa cells cultured in amino acid-free media and subsequently stimulated as indicated for at least 3 h. Correct subcellular fractionation was verified with H3 and tubulin antibodies. […] After 3 h at 37° C. in RPMI medium containing one of each of the compounds, the cells were washed, fixed, and stained with DAPI and photographed by using confocal automated microscopy (Opera high content system, Perkin Elmer). […] Scale bars represent 30 μm. […] The EC50 for each compound was calculated using Prism software (see Materials and Methods for details). […] Antibody used were p-T389-S6K, S6K and FLAG. […] HeLa cells stably expressing Flag-3×TFEB were infected with lentiviruses encoding a Short hairpin (Sh-) RNA targeting luciferase (control) or RagC and RagD mRNAs. […] TFEB localization was detected with a FLAG antibody, whereas tubulin and H3 were used as controls for the cytosolic and nuclear fraction, respectively; levels of S6K phosphorylation were used to test RagC and RagD knockdown efficiency.
After 3 hours at 37° C. in RPMI medium cells were washed, fixed, and stained with DAPI. For the acquisition of the images, ten pictures per each well of the 384-well plate were taken by using confocal automated microscopy (Opera high content system, Perkin Elmer). A dedicated script was developed to perform the analysis of TFEB localization on the different images (Acapella software, Perkin Elmer). The script calculates the ratio value resulting from the average intensity of nuclear TFEB-GFP fluorescence divided by the average of the cytosolic intensity of TFEB-GFP fluorescence. The results were normalized using negative (RPMI medium) and positive (HBSS starvation) control samples in the same plate. The data are represented by the percentage of nuclear translocation at the different concentrations of each compound using Prism software (GraphPad software). The EC50 for each compound was calculated using non-linear regression fitting (Prism software).
In order to find additional small molecules able to induce the translocation of TFEB from the cytosol to the nucleus, the applicants developed a cell-based high content assay using stable HeLa cells overexpressing TFEB fused to the green fluorescent protein (TFEB-GFP). In the assay imaging of treated cells is acquired by an automated confocal microscope (OPERA system) and the analysis of those images with Acapella image software calculates the ratio of the average of fluorescence intensity of TFEB-GFP between the cytosol and nucleus of the cell (see Materials and methods for details). […] They tested ten concentrations for each inhibitor.

Question: Which “body weight after treatment” value [1] does the source give for `Nc1ccc(-c2ccc3ncc4ccc(=O)n(-c5cccc(C(F)(F)F)c5)c4c3c2)cn1` [TORIN 2] here?
Answer: The value was “no weight differences”.

Question: And the survival [1]?
Answer: Its survival is “all the mice treated survived”.

Question: What about the “GAG staining in liver” value [2] of the same compound?
Answer: Its value is “significant reduction”.

Question: And the “alcian blue-stained GAGs” value [3]?
Answer: The value was “striking reduction”.

Question: What about the cellular vacuolization [4] of the same compound?
Answer: Its cellular vacuolization is “reduces vacuolization”.

Question: What about the EC50 (TFEB; 3 h, ten concentrations 2.54 nM to 50 μM (FIG. 19D), read-out: EC50, TFEB nuclear translocation) of the same compound?
Answer: The EC50 was 1670 nM.

Question: And the EC50 (TFEB; mobilization of cytosolic TFEB to the nucleus, 3 h at 37° C. in RPMI, ten concentrations 50 μM to 2.54 nM, 4 runs, read-out: Average EC50)?
Answer: The EC50 was under 7000 nM.
